Test results reported in patent US20030044800A1, “Drug discovery employing calorimetric target triage” (priority 2000, published 2003).

Key:
hexokinase = test: Calorimetric deconvolution of a cofactor mixture with hexokinase and glucose; type: biochemical; settings: 5 μL of 20 μM hexokinase into 100 μM glucose and cofactors at 1 mM
Experimental: Hexokinase and glucose were present in each test. Various mixtures of cofactors were added to each test. Only when ATP was present in the mixture was a significant amount of heat generated. 5 μL injections of a 20 μM solution of hexokinase were titrated into a solution of 100 μM glucose and one or more “cofactors”, all at 1 mM concentration. In the initial experiment with the entire library of 15 cofactors present, enzymatic turnover was observed (as in FIG. 12a(ii)). We were then able to successfully separate out the cofactors in subsequent experiments to determine which one was actually necessary to allow the hexokinase to turn over the glucose. […] Only tiny heats of dilution are observed when ATP is absent;

E. coli protein YJEQ = E. coli protein YJEQ (Escherichia coli, UniProt P39286); test: Calorimetric titration of GTP-gamma-S into E. coli protein YJEQ; type: binding; settings: 5 μL injections of 11 mM GTP-gamma-S into 2 mL of 385 μM protein
Experimental: 5 μL injections of an 11 mM GTP-gamma-S solution were titrated into 2 mL of a solution containing 385 μM of an E. coli protein for which no function was previously known.

| heat on injection of hexokinase (cofactor needed for turnover of glucose) (hexokinase) | Structure (SMILES) | Kd (E. coli protein YJEQ) [µM] |
| --- | --- | --- |
| large negative heat | Nc1ncnc2c1ncn2[C@@H]1O[C@H](COP(=O)(O)OP(=O)(O)OP(=O)(O)O)[C@@H](O)[C@H]1O [ATP] |  |
|  | Nc1nc2c(ncn2[C@@H]2O[C@H](COP(=O)(O)OP(=O)(O)OP(O)(O)=S)[C@@H](O)[C@H]2O)c(=O)[nH]1 [GTP-gamma-S] | 115 |
